Experimental data from patent US20240417411A1, “COMPOUNDS AND METHODS FOR TREATMENT OF VIRAL INFECTIONS” (priority 2023, published 2024).
Where a name gives a salt, the structure may show the parent alone. Read-outs that look alike come from different tables or passages of the source.

Legend:
in vitro [1] = assay type: in vitro ADME; settings: human, s9, pH 7.4
Procedure: Example D: GI S9 Stability […] The S9 metabolic reactions were initiated by the addition of the substrates to the S9 reaction mixture to a final concentration of 2 μM. […] Aliquots ([…]) of the diluted supernatant were analyzed on a Thermo Q-Exactive mass spectrometer as described below. Example F: Liquid Chromatography/Mass Spectroscopy Methods for S9 and Plasma Stability Quantification of test compounds, Reference Compound A (S9 stability assay nucleoside metabolite), and controls was performed by analyte/internal standard peak area ratio (PAR) values measured on a Thermo Q-Exactive mass spectrometer coupled to a Dionex UltiMate 3000 HPLC with a Leap Technologies HTC PAL autosampler. […] Mobile phase A consisted of 0.1% (v/v) formic acid in water. Mobile phase B consisted of 0.1% (v/v) formic acid in acetonitrile. Elution of analytes was achieved by a series of linear gradients of acetonitrile in water containing 0.10% (v/v) formic acid. The mass spectrometer was calibrated on a weekly basis and mass tolerance of 5 ppm was used.

in vitro [2] = settings: human, plasma
[3] = test system: Caco-2 cells (clone C2BBe1); settings: human
in vitro [4] = assay type: cell-based; settings: human
Procedure: Example C: CC50 MT4 Cytotoxicity of the compounds was determined in uninfected cells using the cell viability reagent in a similar fashion as described before for other cell types ([…] et al., Antimicrob Agents Chemother. 2008,52(2):655-65). […] Cells were cultured for 4-5 days at 37° C. Following the incubation, the cells were allowed to equilibrate to 25° C., and cell viability was determined by adding Cell-Titer Glo viability reagent. The mixture was incubated for 10 min, and the luminescence signal was quantified using an Envision plate reader. Untreated cell and cells treated at 2 μM puromycin (Sigma, St. Louis, MO) serve as 100% and 0% cell viability control, respectively. The percent of cell viability was calculated for each tested compound concentration relative to the 0% and 100% controls and the CC50 value was determined by non-linear regression as a compound concentration reducing the cell viability by 50%.

RSV-Luc5 = test: microbe, parasite or virus in culture; assay type: cell-based; settings: human respiratory syncytial virus, NHBE, 72 h, read-out: RSV NHBE EC50 (nM)
SARS-CoV2-NLuc = test: microbe, parasite or virus in culture; assay type: cell-based, SARS Coronavirus 2; settings: Severe acute respiratory syndrome coronavirus 2, 48 h, read-out: SARS-CoV2 EC50 (nM)

For CC(C)OC(=O)OC[C@H]1O[C@@](C#N)(c2ccc3c(N)ncnn23)[C@@H]2OC(=O)CCCC(=O)O[C@@H]21 [Compound C2, ((7aR,8R,10R,10aR)-10-(4-aminopyrrolo[2,1-f][1,2,4]triazin-7-yl)-10-cyano-2,6-dioxooctahydro-2H-furo[3,4-b][1,4]dioxonin-8-yl)methyl isopropyl carbonate], the half-life at 2 μM (in vitro [1]) was 0.616 min, the half-life at 2 μM (in vitro [2]) was 7.8 min and the “Caco2 A to B” value ([3]; Caco-2) was 1.66. For the same compound, the “Caco2 B to A” value ([3]; Caco-2) was 7.32, the CC50 (in vitro [4]) was over 50 µM and the EC50 (RSV-Luc5) was 3350 nM. The EC50 (SARS-CoV2-NLuc) was 9600 nM.
In the case of CC(C)OC(=O)OC[C@H]1O[C@@](C#N)(c2ccc3c(N)ncnn23)[C@@H]2OC(=O)CC(C)(C)CC(=O)O[C@@H]21 [Compound C3, ((7aR,8R,10R,10aR)-10-(4-aminopyrrolo[2,1-f][1,2,4]triazin-7-yl)-10-cyano-4,4-dimethyl-2,6-dioxooctahydro-2H-furo[3,4-b][1,4]dioxonin-8-yl)methyl isopropyl carbonate], the half-life at 2 μM (in vitro [1]) is reported as 6 min, the half-life at 2 μM (in vitro [2]) is reported as 1240 min and the “Caco2 A to B” value ([3]; Caco-2) is reported as 5.9. For the same compound, the “Caco2 B to A” value ([3]; Caco-2) was 7.3, the CC50 (in vitro [4]) was over 50 µM and the EC50 (RSV-Luc5) was over 50000 nM. It also gave an EC50 (SARS-CoV2-NLuc) of 12000 nM.
In the case of CC(C)OC(=O)OC[C@H]1O[C@@](C#N)(c2ccc3c(N)ncnn23)[C@@H]2OC(=O)CN(C)CC(=O)O[C@@H]21 [Compound C4, ((7aR,8R,10R,10aR)-10-(4-aminopyrrolo[2,1-f][1,2,4]triazin-7-yl)-10-cyano-4-methyl-2,6-dioxooctahydro-2H-furo[3,4-b][1,4,7]dioxazonin-8-yl)methyl isopropyl carbonate], the half-life at 2 μM (in vitro [1]) is reported as 0.694 min, the half-life at 2 μM (in vitro [2]) is reported as 65.6 min and the “Caco2 A to B” value ([3]; Caco-2) is reported as 0.023. The “Caco2 B to A” value ([3]; Caco-2) was 2, the CC50 (in vitro [4]) was over 50 µM and the EC50 (RSV-Luc5) was 3120 nM. For the same compound, the EC50 (SARS-CoV2-NLuc) was 6730 nM.
With CCOC(=O)OC[C@H]1O[C@@](C#N)(c2ccc3c(N)ncnn23)[C@@H]2OC(=O)CC(C)(C)CC(=O)O[C@@H]21 [Compound C14, ((7aR,8R,10R,10aR)-10-(4-aminopyrrolo[2,1-f][1,2,4]triazin-7-yl)-10-cyano-4,4-dimethyl-2,6-dioxooctahydro-2H-furo[3,4-b][1,4]dioxonin-8-yl)methyl ethyl carbonate] the half-life at 2 μM (in vitro [1]) was 4.03 min, the half-life at 2 μM (in vitro [2]) was 27.1 min and the “Caco2 A to B” value ([3]; Caco-2) was 4.27. For the same compound, the “Caco2 B to A” value ([3]; Caco-2) was 8.55, the CC50 (in vitro [4]) was over 50 µM and the EC50 (RSV-Luc5) was over 50000 nM. For the same compound, the EC50 (SARS-CoV2-NLuc) was over 50000 nM.
For N#C[C@@]1(c2ccc3c(N)ncnn23)O[C@H](COC(=O)OC2CCOCC2)[C@H]2OC(=O)CCCC(=O)O[C@H]21 [Compound C16, ((7aR,8R,10R,10aR)-10-(4-aminopyrrolo[2,1-f][1,2,4]triazin-7-yl)-10-cyano-2,6-dioxooctahydro-2H-furo[3,4-b][1,4]dioxonin-8-yl)methyl (tetrahydro-2H-pyran-4-yl) carbonate], the half-life at 2 μM (in vitro [1]) was 0.605 min, the half-life (in vitro [2]) was 14.1 min and the “Caco2 A to B” value ([3]; Caco-2) was 0.68. For the same compound, the “Caco2 B to A” value ([3]; Caco-2) was 5.08, the CC50 (in vitro [4]) was over 50 µM and the EC50 (RSV-Luc5) was 20000 nM. For the same compound, the EC50 (SARS-CoV2-NLuc) was 14900 nM.
In the case of CC(C)(OC(=O)OC[C@H]1O[C@@](C#N)(c2ccc3c(N)ncnn23)[C@@H]2OC(=O)CCCC(=O)O[C@@H]21)c1ccncc1 [Compound C17, ((7aR,8R,10R,10aR)-10-(4-aminopyrrolo[2,1-f][1,2,4]triazin-7-yl)-10-cyano-2,6-dioxooctahydro-2H-furo[3,4-b][1,4]dioxonin-8-yl)methyl (2-(pyridin-4-yl)propan-2-yl) carbonate], the half-life at 2 μM (in vitro [2]) is reported as 31.1 min, the “Caco2 A to B” value ([3]; Caco-2) is reported as 2.97 and the “Caco2 B to A” value ([3]; Caco-2) is reported as 15.86. The CC50 (in vitro [4]) was over 50 µM, the EC50 (RSV-Luc5) was over 50000 nM and the EC50 (SARS-CoV2-NLuc) was 29900 nM.
With CN1[C@@H]2CC[C@H]1C[C@@H](OC(=O)OC[C@H]1O[C@@](C#N)(c3ccc4c(N)ncnn34)[C@@H]3OC(=O)CCCC(=O)O[C@@H]31)C2 [Compound C30, ((7aR,8R,10R,10aR)-10-(4-aminopyrrolo[2,1-f][1,2,4]triazin-7-yl)-10-cyano-2,6-dioxooctahydro-2H-furo[3,4-b][1,4]dioxonin-8-yl)methyl ((1R,3s,5S)-8-methyl-8-azabicyclo[3.2.1]octan-3-yl) carbonate formate] the half-life at 2 μM (in vitro [1]) was 0.575 min, the half-life at 2 μM (in vitro [2]) was 24 min and the “Caco2 A to B” value ([3]; Caco-2, 2 h) was 0.02. The “Caco2 B to A” value ([3]; Caco-2, 2 h) was 0.42, the CC50 (in vitro [4]) was over 50 µM and the EC50 (RSV-Luc5) was over 50000 nM. The EC50 (SARS-CoV2-NLuc) was 42500 nM.
For COC(=O)[C@H]([C@@H](C)OC(=O)OC[C@H]1O[C@@](C#N)(c2ccc3c(N)ncnn23)[C@@H]2OC(=O)CCCC(=O)O[C@@H]21)N(C)C [Compound C31, (2S,3R)-methyl 3-(((((7aR,8R,10R,10aR)-10-(4-aminopyrrolo[2,1-f][1,2,4]triazin-7-yl)-10-cyano-2,6-dioxooctahydro-2H-furo[3,4-b][1,4]dioxonin-8yl)methoxy)carbonyl)oxy)-2-(dimethylamino)butanoate 2,2,2-trifluoroacetate], the half-life at 2 μM (in vitro [1]) was 0.57 min, the half-life at 2 μM (in vitro [2]) was 15.5 min and the “Caco2 A to B” value ([3]; Caco-2) was 0.49. The “Caco2 B to A” value ([3]; Caco-2) was 5.62, the CC50 (in vitro [4]) was over 50 µM and the EC50 (RSV-Luc5) was 9190 nM. The EC50 (SARS-CoV2-NLuc) was 6060 nM.
With CC1(C)CC(=O)O[C@H]2[C@@H](OC(=O)C1)[C@](C#N)(c1ccc3c(N)ncnn13)O[C@@H]2COC(=O)OC1CCOCC1 [Compound C33, ((7aR,8R,10R,10aR)-10-(4-aminopyrrolo[2,1-f][1,2,4]triazin-7-yl)-10-cyano-4,4-dimethyl-2,6-dioxooctahydro-2H-furo[3,4-b][1,4]dioxonin-8-yl)methyl (tetrahydro-2H-pyran-4-yl) carbonate] the half-life at 2 μM (in vitro [1]) was 29 min, the half-life (in vitro [2]) was 609 min and the “Caco2 A to B” value ([3]; Caco-2) was 0.41. The “Caco2 B to A” value ([3]; Caco-2) was 3.17, the CC50 (in vitro [4]) was over 50 µM and the EC50 (RSV-Luc5) was over 50000 nM. It also gave an EC50 (SARS-CoV2-NLuc) of over 50000 nM.
For CC1(C)CC(=O)O[C@H]2[C@@H](OC(=O)C1)[C@](C#N)(c1ccc3c(N)ncnn13)O[C@@H]2COC(=O)OC1CCOC1 (stereo partly drawn) [Compound C40, ((7aR,8R,10R,10aR)-10-(4-aminopyrrolo[2,1-f][1,2,4]triazin-7-yl)-10-cyano-4,4-dimethyl-2,6-dioxooctahydro-2H-furo[3,4-b][1,4]dioxonin-8-yl)methyl (tetrahydrofuran-3-yl) carbonate], the half-life at 2 μM (in vitro [1]) was 5.83 min, the half-life at 2 μM (in vitro [2]) was 72.5 min and the “Caco2 A to B” value ([3]; Caco-2) was 0.69. The “Caco2 B to A” value ([3]; Caco-2) was 5.13, the CC50 (in vitro [4]) was over 50 µM and the EC50 (RSV-Luc5) was over 50000 nM. For the same compound, the EC50 (SARS-CoV2-NLuc) was over 50000 nM.
In the case of CCOC(=O)[C@@H]1[C@H](OC(=O)OC[C@H]2O[C@@](C#N)(c3ccc4c(N)ncnn34)[C@@H]3OC(=O)CC(C)(C)CC(=O)O[C@@H]32)CCN1C [Compound C49, ethyl (2S,3R)-3-(((((7aR,8R,10R,10aR)-10-(4-aminopyrrolo[2,1-f][1,2,4]triazin-7-yl)-10-cyano-4,4-dimethyl-2,6-dioxooctahydro-2H-furo[3,4-b][1,4]dioxonin-8-yl)methoxy)carbonyl)oxy)-1-methylpyrrolidine-2-carboxylate], the half-life at 2 μM (in vitro [1]) is reported as 7.81 min, the half-life at 2 μM (in vitro [2]) is reported as 42.5 min and the CC50 (in vitro [4]) is reported as over 50 µM. It also gave an EC50 (RSV-Luc5) of over 50000 nM and an EC50 (SARS-CoV2-NLuc) of over 50000 nM.
CC(C)[C@H](NC(=O)OC(C)(C)C)C(=O)OC[C@H]1O[C@@](C#N)(c2ccc3c(N)ncnn23)[C@@H]2OC(=O)CCCC(=O)O[C@@H]21 [Compound C58, ((7aR,8R,10R,10aR)-10-(4-aminopyrrolo[2,1-f][1,2,4]triazin-7-yl)-10-cyano-2,6-dioxooctahydro-2H-furo[3,4-b][1,4]dioxonin-8-yl)methyl (tert-butoxycarbonyl)-L-valinate] gave a half-life at 2 μM (in vitro [1]) of 0.577 min, a half-life at 2 μM (in vitro [2]) of 26.4 min and a CC50 (in vitro [4]) of over 50 µM. The EC50 (RSV-Luc5) was 2840 nM and the EC50 (SARS-CoV2-NLuc) was 5120 nM.
With CC(C)[C@H](N)C(=O)OC[C@H]1O[C@@](C#N)(c2ccc3c(N)ncnn23)[C@@H]2OC(=O)CCCC(=O)O[C@@H]21 [Compound C59, ((7aR,8R,10R,10aR)-10-(4-aminopyrrolo[2,1-f][1,2,4]triazin-7-yl)-10-cyano-2,6-dioxooctahydro-2H-furo[3,4-b][1,4]dioxonin-8-yl)methyl L-valinate] the half-life at 2 μM (in vitro [1]) was 0.586 min, the half-life at 2 μM (in vitro [2]) was 18.5 min and the CC50 (in vitro [4]) was over 50 µM. It also gave an EC50 (RSV-Luc5) of 5970 nM and an EC50 (SARS-CoV2-NLuc) of 6830 nM.
